Assay [1] relates to normal human peripheral blood mononuclear cells (PBMC). Format: cell-based. The following applies: for IC90: tetanus toxoid, 2-3 separate experiments/ganglioside, read-out: ID90 (ganglioside concentration required to cause 90% inhibition of the lymphoproliferative response).
Assay [2] shares this test system. Description: Inhibition of normal human lymphoproliferative responses to a panel of mitogens and soluble antigens (3H-thymidine uptake). Format: cell-based. The following applies: 0.5% plasma; for 3H-thymidine uptake: mean of triplicate cultures.
Where [3] appears, read: Candida Antigen, ganglioside 2.5 μM.
Where [4] appears, read: Candida Antigen, ganglioside 10 μM.
Setting [5] is: Diptheria Toxoid, ganglioside 2.5 μM.
Where [6] appears, read: Diptheria Toxoid, ganglioside 10 μM.
[7] abbreviates: Tetanus Toxoid, ganglioside 10 μM.

For the substance GD1b, in assay [1], the IC90 amounted to 4.5 µM.

Take sialosylceramide [GM5]: the “predicted immunosuppressive activity (in words)” value in assay [1] (inferred from Table 2 trend) is reported as “very active as an immunosuppressant”.

The term % inhibition denotes how much of the control response was suppressed. GD1a: the IC90 in assay [1] was 2.3 µM. The “% inhibition” value turned out to be 45% in assay [2] (setting [3]); 84% in assay [2] (setting [4]); 0% in assay [2] (ConA, ganglioside 2.5 μM); 37% in assay [2] (ConA, ganglioside 10 μM); 60% in assay [2] (setting [5]); 85% in assay [2] (setting [6]). For the same substance, the “% inhibition” value in assay [2] (PHA, ganglioside 2.5 μM) is 3%; in assay [2] (PHA, ganglioside 10 μM), 11%; in assay [2] (PWM, ganglioside 2.5 μM), 7%; in assay [2] (PWM, ganglioside 10 μM), 68%; in assay [2] (setting [7]), 88%. Also, the 3H-thymidine uptake is given as 3.2 net cpm in assay [2] (setting [3]); 0.9 net cpm in assay [2] (setting [4]); 84.3 net cpm in assay [2] (ConA, ganglioside 2.5 μM); 49.0 net cpm in assay [2] (ConA, ganglioside 10 μM); 2.1 net cpm in assay [2] (setting [5]); 0.8 net cpm in assay [2] (setting [6]). Moreover, the 3H-thymidine uptake in assay [2] (PHA, ganglioside 2.5 μM) was 75.4 net cpm; in assay [2] (PHA, ganglioside 10 μM), 69.2 net cpm; in assay [2] (PWM, ganglioside 2.5 μM), 13.0 net cpm; in assay [2] (PWM, ganglioside 10 μM) it was 4.5 net cpm; in assay [2] (Tetanus Toxoid, ganglioside 2.5 μM) it was 8.8 net cpm; in assay [2] (setting [7]), 3.2 net cpm.

For the substance asialo-GM1 [reference compound], the “immunosuppressive activity (in words)” value in assay [1] is “does not substantially alter activity”.

On to GT1b, for which the IC90 in assay [1] came out at 2.8 µM.

Turning to “galactosylceramide [asialo-GM4, reference compound]”, the IC50 in assay [1] (tetanus toxoid-induced lymphoproliferation, read-out: ID50 (the source's name)) came to 13 µM.

The values are drawn from patent US6326361A, “Gangliosides with immunosuppressive activity” (The Regents of the University of California, priority 1993, dated 2001).
